Results as given in ChEMBL document CHEMBL6096636 (Bioorg Med Chem, 2024).
Active and inactive are the calls of the source. The calls are words filed in the database; no cut-off is given here.

Assays:
[1] = Cytotoxicity against human HepG2 cells assessed as inhibition of cell growth incubated for 72 hrs by CCK8 assay; format: toxicity, cell-based
[2] = Cytotoxicity against HEK293T cells assessed as inhibition of cell growth incubated for 72 hrs by CCK8 assay; format: toxicity, cell-based, HEK-293T; conditions: human
[3] = Selectivity index, ratio of IC50 for HEK293T cells to IC50 for erythrocytic stage of Plasmodium falciparum 3D7; format: toxicity, cell-based; conditions: human, read-out: Ratio IC50
Plasmodium falciparum [4] = experiment: Antimalarial activity against sulfadoxine-pyrimethamine and mefloquine resistant Plasmodium falciparum clinical isolate CP286 assessed as inhibition of growth incubated for 72 hrs by SYBR green I based assay; format: functional, organism-based
Plasmodium falciparum [5] = experiment: Inhibition of asynchronous ring stage Plasmodium falciparum 3D7 HDAC assessed as increase in histone H3 acetylation level at 20 times of IC50 concentration incubated for 2 hrs by Western blot analysis
Histone deacetylase 1 = Histone deacetylase 1 (Homo sapiens, UniProt Q13547); experiment: Inhibition of recombinant human HDAC1 using Ac-peptide as substrate preincubated for 15 mins followed by substrate addition and measured after 60 mins
Histone deacetylase 2 = Histone deacetylase 2 (Homo sapiens, UniProt Q92769); experiment: Inhibition of recombinant human HDAC2 using Ac-peptide as substrate preincubated for 15 mins followed by substrate addition and measured after 60 mins
Histone deacetylase 3 = Histone deacetylase 3 (Homo sapiens, UniProt O15379); experiment: Inhibition of recombinant human HDAC3 using Ac-peptide as substrate preincubated for 15 mins followed by substrate addition and measured after 60 mins
[6] = target: T1, Protein deacetylase HDAC6 (Homo sapiens, UniProt Q9UBN7); experiment: Inhibition of recombinant human HDAC6 using Ac-peptide as substrate preincubated for 15 mins followed by substrate addition and measured after 60 mins
T1 sequence (Q9UBN7 whole entry): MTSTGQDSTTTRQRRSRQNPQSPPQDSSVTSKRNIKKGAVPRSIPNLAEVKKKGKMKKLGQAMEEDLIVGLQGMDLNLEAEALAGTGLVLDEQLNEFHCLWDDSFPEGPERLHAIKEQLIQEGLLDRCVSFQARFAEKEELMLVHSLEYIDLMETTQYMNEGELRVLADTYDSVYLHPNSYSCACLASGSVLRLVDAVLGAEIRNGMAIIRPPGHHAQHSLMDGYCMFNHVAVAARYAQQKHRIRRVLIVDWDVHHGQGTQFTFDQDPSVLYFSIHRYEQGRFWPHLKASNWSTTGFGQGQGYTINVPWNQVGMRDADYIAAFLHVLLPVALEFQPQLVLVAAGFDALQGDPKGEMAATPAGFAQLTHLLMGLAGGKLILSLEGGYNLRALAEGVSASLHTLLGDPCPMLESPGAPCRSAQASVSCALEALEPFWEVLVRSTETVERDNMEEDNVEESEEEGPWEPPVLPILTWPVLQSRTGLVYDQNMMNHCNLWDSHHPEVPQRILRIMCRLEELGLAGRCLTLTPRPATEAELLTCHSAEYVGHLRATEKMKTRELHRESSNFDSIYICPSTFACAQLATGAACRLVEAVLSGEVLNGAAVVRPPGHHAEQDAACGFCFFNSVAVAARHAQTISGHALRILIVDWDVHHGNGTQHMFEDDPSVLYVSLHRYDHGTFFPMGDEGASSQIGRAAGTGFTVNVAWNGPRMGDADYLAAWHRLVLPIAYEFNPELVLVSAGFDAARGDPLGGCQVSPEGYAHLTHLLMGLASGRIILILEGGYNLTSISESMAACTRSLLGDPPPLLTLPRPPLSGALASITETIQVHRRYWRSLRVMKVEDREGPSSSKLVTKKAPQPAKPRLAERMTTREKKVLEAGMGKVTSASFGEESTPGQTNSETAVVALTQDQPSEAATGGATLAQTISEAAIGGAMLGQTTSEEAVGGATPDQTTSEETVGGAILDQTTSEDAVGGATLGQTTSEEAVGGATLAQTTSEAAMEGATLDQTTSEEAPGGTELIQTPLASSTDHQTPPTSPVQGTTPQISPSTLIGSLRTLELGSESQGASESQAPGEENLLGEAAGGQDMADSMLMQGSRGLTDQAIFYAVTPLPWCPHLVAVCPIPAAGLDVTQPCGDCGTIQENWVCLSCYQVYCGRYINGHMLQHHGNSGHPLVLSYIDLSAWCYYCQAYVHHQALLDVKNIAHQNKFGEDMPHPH

Histone deacetylase 8 = target: T2, Histone deacetylase 8 (Homo sapiens, UniProt Q9BY41); experiment: Inhibition of recombinant human HDAC8 using Ac-peptide as substrate preincubated for 15 mins followed by substrate addition for 240 mins and measured after 120 mins of trypsin addition
T2 sequence (Q9BY41 whole entry): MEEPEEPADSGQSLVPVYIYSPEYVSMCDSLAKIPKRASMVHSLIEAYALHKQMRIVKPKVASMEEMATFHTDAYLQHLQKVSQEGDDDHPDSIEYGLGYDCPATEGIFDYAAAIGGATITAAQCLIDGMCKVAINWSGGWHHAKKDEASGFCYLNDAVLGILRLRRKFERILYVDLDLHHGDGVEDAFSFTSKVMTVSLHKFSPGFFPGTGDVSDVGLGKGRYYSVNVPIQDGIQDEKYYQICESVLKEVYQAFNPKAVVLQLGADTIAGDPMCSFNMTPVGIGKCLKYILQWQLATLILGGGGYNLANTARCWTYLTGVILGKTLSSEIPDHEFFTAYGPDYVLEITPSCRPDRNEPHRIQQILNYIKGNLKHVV

[7] = target: T3, NAD-dependent protein deacetylase sirtuin-2 (Homo sapiens, UniProt Q8IXJ6); experiment: Inhibition of recombinant human SIRT2 using Ac-peptide as substrate preincubated for 15 mins followed by substrate addition for 240 mins and measured after 120 mins of trypsin addition
T3 sequence (Q8IXJ6 whole entry): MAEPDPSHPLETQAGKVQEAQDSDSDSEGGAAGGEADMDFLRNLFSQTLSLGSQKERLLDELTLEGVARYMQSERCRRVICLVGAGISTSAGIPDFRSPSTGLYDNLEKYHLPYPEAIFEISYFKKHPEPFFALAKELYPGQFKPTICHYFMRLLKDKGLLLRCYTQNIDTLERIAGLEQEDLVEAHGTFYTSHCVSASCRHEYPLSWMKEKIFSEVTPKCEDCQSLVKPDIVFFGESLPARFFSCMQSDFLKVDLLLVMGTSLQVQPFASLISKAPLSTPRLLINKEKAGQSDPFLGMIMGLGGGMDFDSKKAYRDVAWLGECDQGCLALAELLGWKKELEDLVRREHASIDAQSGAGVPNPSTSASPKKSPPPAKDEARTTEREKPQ

[8] = Metabolic stability in mouse liver microsomes assessed as half-life measured upto 45 mins in presence of NADPH by LC-MS/MS analysis; format: ADME, Microsome
[9] = Metabolic stability in mouse liver microsomes assessed as clearance measured upto 45 mins in presence of NADPH by LC-MS/MS analysis; format: ADME, Microsome; conditions: read-out: CLH
Plasmodium yoelii [10] = experiment: Antimalarial activity against erythrocytic stage of Plasmodium yoelli infected in female mouse model assessed as reduction in parasitemia at 30 mg/kg, ip pre-infected with parasite followed by twice daily compound administration from day 3 to 6 by microscopic analysis; format: functional, organism-based; conditions: time 4.0 day
[11] = Toxicity in female mouse model infected with erythrocytic stage of Plasmodium yoelli assessed as animal death at 30 mg/kg, ip pre-infected with parasite followed by twice daily compound administration from day 3 to 6; format: organism-based; conditions: in vivo, 96 h, time 4 day
Plasmodium falciparum [12] = experiment: microbe, parasite or virus in culture; conditions: 3D7, 72 h
Description: Antimalarial activity against erythrocytic stage of Plasmodium falciparum 3D7 assessed as inhibition of growth incubated for 72 hrs by SYBR green I based assay

Plasmodium falciparum [13] = experiment: microbe, parasite or virus in culture; conditions: Dd2, 72 h
Description: Antimalarial activity against erythrocytic stage of chloroquine-resistant Plasmodium falciparum Dd2 assessed as inhibition of growth incubated for 72 hrs by SYBR green I based assay

Plasmodium falciparum [14] = experiment: microbe, parasite or virus in culture; conditions: 72 h
Description: Antimalarial activity against chloroquine resistant Plasmodium falciparum clinical isolate GB4 assessed as inhibition of growth incubated for 72 hrs by SYBR green I based assay

Plasmodium falciparum [15] = experiment: microbe, parasite or virus in culture; conditions: 72 h; remark: listed apart in the source
Description: Antimalarial activity against quinine and chloroquine resistant Plasmodium falciparum clinical isolate C2A assessed as inhibition of growth incubated for 72 hrs by SYBR green I based assay

[16] = Resistance index, ratio of IC50 for chloroquine resistant Plasmodium falciparum clinical isolate GB4 to IC50 for erythrocytic stage of Plasmodium falciparum 3D7; format: functional
[17] = Resistance index, ratio of IC50 for quinine and chloroquine resistant Plasmodium falciparum clinical isolate C2A to IC50 for erythrocytic stage of Plasmodium falciparum 3D7; format: functional
[18] = Resistance index, ratio of IC50 for sulfadoxine-pyrimethamine and mefloquine resistant Plasmodium falciparum clinical isolate CP286 to IC50 for erythrocytic stage of Plasmodium falciparum 3D7; format: functional
Plasmodium yoelii [19] = experiment: Antimalarial activity against erythrocytic stage of Plasmodium yoelli infected in female mouse model assessed as reduction in parasitemia at 60 mg/kg, ip pre-infected with parasite followed by once daily compound administration from day 3 to 6 by microscopic analysis; format: functional, organism-based; conditions: time 4.0 day
[20] = Toxicity in female mouse model at 150 mg/kg, ip administered as single dose; format: organism-based; conditions: in vivo
[21] = Toxicity in female mouse model infected with erythrocytic stage of Plasmodium yoelli assessed as animal death at 30 mg/kg, ip pre-infected with parasite followed by […] compound administration from day 3 to 6; format: organism-based; conditions: in vivo, 96 h, time 4 day
[22] = Tmax in female Balb/c mouse at 5 mg/kg, ip measured after 24 hrs by LC-MS/MS analysis; format: ADME, organism-based; conditions: in vivo

Sequence of Histone deacetylase 1 (Q13547 whole entry): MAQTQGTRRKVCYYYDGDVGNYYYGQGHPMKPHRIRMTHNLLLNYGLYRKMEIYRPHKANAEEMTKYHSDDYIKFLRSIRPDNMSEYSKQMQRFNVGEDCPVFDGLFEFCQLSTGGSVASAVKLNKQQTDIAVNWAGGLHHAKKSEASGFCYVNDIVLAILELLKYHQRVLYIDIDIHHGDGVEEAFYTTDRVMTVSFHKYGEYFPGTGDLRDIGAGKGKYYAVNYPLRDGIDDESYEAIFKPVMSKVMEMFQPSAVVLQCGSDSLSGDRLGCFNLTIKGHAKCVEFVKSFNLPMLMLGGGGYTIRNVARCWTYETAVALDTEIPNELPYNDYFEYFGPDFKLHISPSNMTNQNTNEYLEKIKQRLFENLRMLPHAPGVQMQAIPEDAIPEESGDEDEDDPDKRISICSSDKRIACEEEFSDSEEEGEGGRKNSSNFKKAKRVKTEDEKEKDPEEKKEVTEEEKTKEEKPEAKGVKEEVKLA
Sequence of Histone deacetylase 3 (O15379 whole entry): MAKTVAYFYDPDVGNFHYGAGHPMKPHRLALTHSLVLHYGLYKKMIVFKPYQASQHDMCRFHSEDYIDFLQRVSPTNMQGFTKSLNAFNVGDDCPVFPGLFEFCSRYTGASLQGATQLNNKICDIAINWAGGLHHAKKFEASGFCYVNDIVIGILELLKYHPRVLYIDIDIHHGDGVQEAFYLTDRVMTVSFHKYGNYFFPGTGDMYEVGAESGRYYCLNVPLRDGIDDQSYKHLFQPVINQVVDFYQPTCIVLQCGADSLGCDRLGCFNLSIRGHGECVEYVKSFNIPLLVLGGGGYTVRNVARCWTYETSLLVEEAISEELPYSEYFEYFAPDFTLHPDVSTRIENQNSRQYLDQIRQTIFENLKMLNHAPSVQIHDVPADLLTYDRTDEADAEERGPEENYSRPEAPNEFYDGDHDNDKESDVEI
Sequence of Histone deacetylase 2 (Q92769 whole entry): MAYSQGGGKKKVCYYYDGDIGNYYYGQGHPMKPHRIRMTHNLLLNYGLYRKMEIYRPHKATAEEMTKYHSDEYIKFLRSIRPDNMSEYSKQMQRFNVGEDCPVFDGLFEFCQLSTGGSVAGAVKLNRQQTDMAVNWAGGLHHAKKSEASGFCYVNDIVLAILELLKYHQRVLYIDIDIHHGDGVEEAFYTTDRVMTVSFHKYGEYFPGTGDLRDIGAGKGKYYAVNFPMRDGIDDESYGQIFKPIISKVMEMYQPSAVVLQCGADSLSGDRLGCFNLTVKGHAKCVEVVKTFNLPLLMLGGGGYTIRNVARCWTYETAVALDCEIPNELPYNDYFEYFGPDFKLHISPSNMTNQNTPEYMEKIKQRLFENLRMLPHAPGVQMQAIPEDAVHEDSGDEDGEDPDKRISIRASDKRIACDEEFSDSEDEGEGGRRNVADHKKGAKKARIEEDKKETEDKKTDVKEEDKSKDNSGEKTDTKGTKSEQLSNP

## COc1ccc2c(CN[C@H]3CC[C@@H](Nc4ncc(C(=O)NO)cn4)CC3)cn(C)c2c1.Cl
[1]
  IC50 at 72 h: 12800 nM
[2]
  IC50 at 72 h: > 10000 nM
[3]
  selectivity ratio: > 867
Plasmodium falciparum [4]
  IC50: 38.7 nM
Plasmodium falciparum [5]
  inhibition: Active
Histone deacetylase 1
  IC50: 9.1 nM
Histone deacetylase 2
  IC50: 14 nM
Histone deacetylase 3
  IC50: 21 nM
[6]
  IC50: 90 nM
Histone deacetylase 8
  IC50: 30 nM
[7]
  IC50: > 10000 nM
[8]
  half-life: 48 min
[9]
  CLint scaled: 114 mL/min/kg
Plasmodium yoelii [10]
  Activity: Active; Only Slight Recurrence Of Parasitemia Was Observed Upon Cessation Of Treatment
[11]
  Activity: Toxic
Plasmodium falciparum [12]
  IC50: 2.7 nM
Plasmodium falciparum [13]
  IC50: 12.8 nM
Plasmodium falciparum [14]
  IC50: 27.2 nM
Plasmodium falciparum [15]
  IC50: 22.7 nM

## C[C@H]1[C@@H](O)O[C@@H]2O[C@@]3(C)CC[C@H]4[C@H](C)CC[C@@H]1[C@@]24OO3 [ARTENIMOL]
Plasmodium falciparum [4]
  IC50: 5.6 nM
[16]
  Ratio IC50: 1.2
[17]
  Ratio IC50: 1.4
[18]
  Ratio IC50: 2.1
Plasmodium falciparum [12]
  IC50: 2.7 nM
Plasmodium falciparum [13]
  IC50: 2.68 nM
Plasmodium falciparum [14]
  IC50: 3.2 nM
Plasmodium falciparum [15]
  IC50: 3.7 nM

## Cn1cc(CNCC2CCN(c3ncc(C(=O)NO)cn3)CC2)c2ccccc21 [QUISINOSTAT]
Plasmodium falciparum [5]
  inhibition: Active
[7]
  IC50: > 10000 nM
[8]
  half-life: 13.3 min
Plasmodium yoelii [10]
  Activity: Not active; Mild Recurrence Of Parasitemia Post-Treatment Cessation Observed
Plasmodium yoelii [19]
  Activity: Active; Significant Recurrence Of Parasitemia Observed
[20]
  Activity: Toxic
[21]
  Activity: Toxic
[22]
  Tmax: 4.98 min
Plasmodium falciparum [12]
  IC50: 5.2 nM
Plasmodium falciparum [14]
  IC50: 1.7 nM
